Laboratory results reported in patent publication US20160220569A1, “CDK4/6 Inhibitor Dosage Formulations For The Protection Of Hematopoietic Stem And Progenitor Cells During Chemotherapy” (G1 Therapeutics, Inc., priority 2015, published 2016).
Where two headings read alike, the source gives them in different places.

Assay: 14-day oral gavage toxicokinetic study in rats
Assay type: in vivo
Conditions: female, rat, plasma, po; for half-life: read-out: t½ (converted); for concentration at 0.5 h / concentration at 2 h / concentration at 4 h / concentration at 8 h / concentration at 12 h / concentration at 24 h / concentration at 1 h / concentration at […]: rats
Description: Plasma was obtained from blood samples collected from rats in a composite sampling scheme, with 3 samples collected per sex, per dose, at each target collection time, as illustrated in Table 21 to Table 25. Samples were collected from the vehicle control group on Day 1 and Day 14 at 3 hour after administration. […] Blood samples were collected in tubes containing K3EDTA as an anticoagulant and placed on ice until processed to plasma via centrifugation. Samples were stored frozen at −80° C. until shipment to the bioanalytical laboratory for analysis.
The following parameters were determined:
Cmax: Maximum observed plasma concentration (ng/mL).
A value of 0 ng/mL was assigned to all values below the lower limit of quantitation (BLQ, <10.0 ng/mL).
AUC(0-inf): Area under the plasma concentration vs. time curve extrapolated from 0 to infinity (ng*h/mL), calculated as AUC(0-t)+AUC(t-inf) where AUC(t-inf) is calculated as last measurable concentration (CLast) divided by ke, where ke is the elimination rate constant determined by linear regression of the last three analytically measured points on the log plasma concentration vs. time curve. The selection criteria of the data points for inclusion in the calculation of ke required that at least three data points representing the terminal phase (after Tmax) were regressed and that R2≧0.850 when rounded.
CL: Clearance (L/h/kg), calculated as the dose divided by AUC(0-t).
Vd: Volume of distribution (L/kg), calculated as dose divided by the product of ke and AUC(0-inf).
Vdss: Steady state volume of distribution (L/kg), calculated as clearance […] mean residence time, where mean residence time is calculated as the area under the first moment curve divided by AUC(0-t).
t½: Elimination half-life (h), calculated as ln(2)/ke, where ke is the elimination rate constant determined by linear regression. Half-life was defined as not determined if regression criteria (specified in AUC(0-inf) above) were not met.
Cmax/Dose: Normalized Cmax, calculated as Cmax divided by total dose.
AUC/Dose: Normalized AUC, calculated as AUC(0-t) divided by total dose.
ii. Statistical Analysis Mean and standard deviation (SD) were calculated in Watson. Values of BLQ were assigned a value of 0 ng/mL for mean calculations. Concentration values and derived TK parameters were reported to three significant figures.

[1] = 5 mg/kg, oral 5 mg/kg, Study Day 14, Female
[2] = 15 mg/kg, oral 15 mg/kg, Study Day 1, Female
[3] = 15 mg/kg, oral 15 mg/kg, Study Day 14, Female

## CN1CCN(c2ccc(Nc3ncc4cc5n(c4n3)C3(CCCCC3)CNC5=O)nc2)CC1 [Compound 1, 2′-((5-(4-methylpiperazin-1-yl)pyridin-2-yl)amino)-7′,8′-dihydro-6′H-spiro[cyclohexane-1,9′-pyrazino[1′,2′:1,5]pyrrolo[2,3-d]pyrimidin]-6′-one]
[1]
  Tmax: 1 h
  half-life: 4.41 h
15 mg/kg, Individual Compound 1 Plasma Concentration, daily oral 15 mg/kg, Day 1, Female, 0.5 h
  concentration at 0.5 h: 1050 ng/mL
15 mg/kg, Individual Compound 1 Plasma Concentration, daily oral 15 mg/kg, Day 1, Female, 2 h
  concentration at 2 h: 1820 ng/mL
15 mg/kg, Individual Compound 1 Plasma Concentration, daily oral 15 mg/kg, Day 1, Female, 4 h
  concentration at 4 h: 1750 ng/mL
15 mg/kg, Individual Compound 1 Plasma Concentration, daily oral 15 mg/kg, Day 1, Female, 8 h
  concentration at 8 h: 1250 ng/mL
15 mg/kg, Individual Compound 1 Plasma Concentration, daily oral 15 mg/kg, Day 1, Female, 12 h
  concentration at 12 h: 1010 ng/mL
15 mg/kg, Individual Compound 1 Plasma Concentration, daily oral 15 mg/kg, Day 1, Female, 24 h
  concentration at 24 h: 63.9 ng/mL
15 mg/kg, Individual Compound 1 Plasma Concentration, daily oral 15 mg/kg, Day 14, Female, 0.5 h
  concentration at 0.5 h: 908 ng/mL
15 mg/kg, Individual Compound 1 Plasma Concentration, daily oral 15 mg/kg, Day 14, Female, 1 h
  concentration at 1 h: 1410 ng/mL
15 mg/kg, Individual Compound 1 Plasma Concentration, daily oral 15 mg/kg, Day 14, Female, 4 h
  concentration at 4 h: 1580 ng/mL
15 mg/kg, Individual Compound 1 Plasma Concentration, daily oral 15 mg/kg, Day 14, Female, 8 h
  concentration at 8 h: 996 ng/mL
15 mg/kg, Individual Compound 1 Plasma Concentration, daily oral 15 mg/kg, Day 14, Female, 12 h
  concentration at 12 h: 1060 ng/mL
15 mg/kg, Individual Compound 1 Plasma Concentration, daily oral 15 mg/kg, Day 14, Female, 24 h
  concentration at 24 h: 106 ng/mL
15 mg/kg, Individual Compound 1 Plasma Concentration, daily oral 15 mg/kg, Day 14, Female, […]
  concentration at […]: 117 ng/mL
15 mg/kg, Mean Compound 1 Plasma Concentration, oral 15 mg/kg, Day 1, 0.5 h, Female
  concentration at 0.5 h: 1180 ng/mL
15 mg/kg, Mean Compound 1 Plasma Concentration, oral 15 mg/kg, Day 1, 1 h, Female
  concentration at 1 h: 1530 ng/mL
15 mg/kg, Mean Compound 1 Plasma Concentration, oral 15 mg/kg, Day 1, 2 h, Female
  concentration at 2 h: 1910 ng/mL
15 mg/kg, Mean Compound 1 Plasma Concentration, oral 15 mg/kg, Day 1, 4 h, Female
  concentration at 4 h: 1690 ng/mL
15 mg/kg, Mean Compound 1 Plasma Concentration, oral 15 mg/kg, Day 1, 8 h, Female
  concentration at 8 h: 1440 ng/mL
15 mg/kg, Mean Compound 1 Plasma Concentration, oral 15 mg/kg, Day 1, 12 h, Female
  concentration at 12 h: 916 ng/mL
15 mg/kg, Mean Compound 1 Plasma Concentration, oral 15 mg/kg, Day 1, 24 h, Female
  concentration at 24 h: 84.5 ng/mL
15 mg/kg, Mean Compound 1 Plasma Concentration, oral 15 mg/kg, Day 1, […], Female
  concentration at […]: 109 ng/mL
15 mg/kg, Mean Compound 1 Plasma Concentration, oral 15 mg/kg, Day 14, 0.5 h, Female
  concentration at 0.5 h: 1170 ng/mL
15 mg/kg, Mean Compound 1 Plasma Concentration, oral 15 mg/kg, Day 14, 1 h, Female
  concentration at 1 h: 1450 ng/mL
15 mg/kg, Mean Compound 1 Plasma Concentration, oral 15 mg/kg, Day 14, 2 h, Female
  concentration at 2 h: 1490 ng/mL
15 mg/kg, Mean Compound 1 Plasma Concentration, oral 15 mg/kg, Day 14, 4 h, Female
  concentration at 4 h: 1570 ng/mL
15 mg/kg, Mean Compound 1 Plasma Concentration, oral 15 mg/kg, Day 14, 8 h, Female
  concentration at 8 h: 979 ng/mL
15 mg/kg, Mean Compound 1 Plasma Concentration, oral 15 mg/kg, Day 14, 12 h, Female
  concentration at 12 h: 805 ng/mL
15 mg/kg, Mean Compound 1 Plasma Concentration, oral 15 mg/kg, Day 14, 24 h, Female
  concentration at 24 h: 130 ng/mL
15 mg/kg, Mean Compound 1 Plasma Concentration, oral 15 mg/kg, Day 14, […], Female
  concentration at […]: 131 ng/mL
[2]
  AUC(0-inf): 23700 ng·h/mL
  AUC(0-t): 23200 ng·h/mL
  Cmax: 1910 ng/mL
  Tmax: 2 h
[3]
  AUC(0-inf): 20800 ng·h/mL
  AUC(0-t): 19800 ng·h/mL
  Cmax: 1570 ng/mL
  Tmax: 4 h
  half-life: 5.24 h
30 mg/kg, Individual Compound 1 Plasma Concentration, daily oral 30 mg/kg, Day 1, Female, 0.5 h
  concentration at 0.5 h: 2030 ng/mL
30 mg/kg, Individual Compound 1 Plasma Concentration, daily oral 30 mg/kg, Day 1, Female, 1 h
  concentration at 1 h: 2500 ng/mL
30 mg/kg, Individual Compound 1 Plasma Concentration, daily oral 30 mg/kg, Day 1, Female, 2 h
  concentration at 2 h: 3440 ng/mL
30 mg/kg, Individual Compound 1 Plasma Concentration, daily oral 30 mg/kg, Day 1, Female, 4 h
  concentration at 4 h: 2570 ng/mL
30 mg/kg, Individual Compound 1 Plasma Concentration, daily oral 30 mg/kg, Day 1, Female, 8 h
  concentration at 8 h: 2480 ng/mL
30 mg/kg, Individual Compound 1 Plasma Concentration, daily oral 30 mg/kg, Day 1, Female, 12 h
  concentration at 12 h: 2000 ng/mL
30 mg/kg, Individual Compound 1 Plasma Concentration, daily oral 30 mg/kg, Day 1, Female, 24 h
  concentration at 24 h: 310 ng/mL
30 mg/kg, Individual Compound 1 Plasma Concentration, daily oral 30 mg/kg, Day 1, Female, […]
  concentration at […]: 114 ng/mL
30 mg/kg, Individual Compound 1 Plasma Concentration, daily oral 30 mg/kg, Day 14, Female, 0.5 h
  concentration at 0.5 h: 1450 ng/mL
30 mg/kg, Individual Compound 1 Plasma Concentration, daily oral 30 mg/kg, Day 14, Female, 1 h
  concentration at 1 h: 2740 ng/mL
30 mg/kg, Individual Compound 1 Plasma Concentration, daily oral 30 mg/kg, Day 14, Female, 2 h
  concentration at 2 h: 2170 ng/mL
30 mg/kg, Individual Compound 1 Plasma Concentration, daily oral 30 mg/kg, Day 14, Female, 4 h
  concentration at 4 h: 2700 ng/mL
30 mg/kg, Individual Compound 1 Plasma Concentration, daily oral 30 mg/kg, Day 14, Female, 8 h
  concentration at 8 h: 1970 ng/mL
30 mg/kg, Individual Compound 1 Plasma Concentration, daily oral 30 mg/kg, Day 14, Female, 12 h
  concentration at 12 h: 2290 ng/mL
30 mg/kg, Individual Compound 1 Plasma Concentration, daily oral 30 mg/kg, Day 14, Female, 24 h
  concentration at 24 h: 280 ng/mL
